One may read the Kd as a measure of binding affinity in units of concentration.

A value given as a limit tells only on which side of the number the result lay.

The assay concerns the target T1, Mer (Homo sapiens, UniProt Q12866).
T1 construct: purchased Life Technologies
T1 sequence (Q12866 21-999): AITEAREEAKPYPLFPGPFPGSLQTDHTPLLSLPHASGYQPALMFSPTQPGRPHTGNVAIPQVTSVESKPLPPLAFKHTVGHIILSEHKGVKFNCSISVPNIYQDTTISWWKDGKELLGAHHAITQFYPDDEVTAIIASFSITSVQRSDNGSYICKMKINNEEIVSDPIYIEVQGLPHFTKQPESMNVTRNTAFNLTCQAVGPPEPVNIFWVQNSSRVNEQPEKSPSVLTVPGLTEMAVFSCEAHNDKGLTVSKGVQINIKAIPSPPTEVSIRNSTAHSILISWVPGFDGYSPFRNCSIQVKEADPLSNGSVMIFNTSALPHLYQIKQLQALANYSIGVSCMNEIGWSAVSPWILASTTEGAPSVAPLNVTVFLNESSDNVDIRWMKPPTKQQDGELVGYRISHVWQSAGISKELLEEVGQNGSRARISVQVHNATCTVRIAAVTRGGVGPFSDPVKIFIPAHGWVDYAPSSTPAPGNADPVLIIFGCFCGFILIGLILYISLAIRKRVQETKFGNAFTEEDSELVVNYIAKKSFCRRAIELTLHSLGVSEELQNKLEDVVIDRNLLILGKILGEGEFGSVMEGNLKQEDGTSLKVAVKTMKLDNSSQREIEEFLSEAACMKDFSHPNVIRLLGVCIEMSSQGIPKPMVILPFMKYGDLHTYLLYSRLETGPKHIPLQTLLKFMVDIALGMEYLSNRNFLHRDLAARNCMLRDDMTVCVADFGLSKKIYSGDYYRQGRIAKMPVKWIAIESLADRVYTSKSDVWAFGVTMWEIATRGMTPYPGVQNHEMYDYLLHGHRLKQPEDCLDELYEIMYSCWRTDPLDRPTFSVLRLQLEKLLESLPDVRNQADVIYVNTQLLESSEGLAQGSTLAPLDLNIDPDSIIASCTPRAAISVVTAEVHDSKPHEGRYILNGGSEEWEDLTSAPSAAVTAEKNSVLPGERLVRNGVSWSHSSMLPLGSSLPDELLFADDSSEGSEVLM
Kind of assay: LanthaScreen Eu kinase binding assay for Mer. The note with it: read-out: Mer kinase binding activity (Kd). In short, it runs like this: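 Competitive displacement of Alexa Fluor 647-labeled Tracer 236 from the kinase, with binding detected by TR-FRET with a Eu-labeled anti-GST antibody. Compounds were run as 8-step DMSO serial dilutions and incubated 1 h at room temperature. Kd was calculated relative to DMSO vehicle control wells.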
For the compound `COc1cc2nccc(Oc3ccc(NC(=O)c4nn(C5CC5)cc4OCC(F)(F)F)nc3)c2cc1OC` [Compound 5], the Kd was less than 100 nM.
The figure for `COc1cc2nccc(Oc3ccc(NC(=O)c4nn(C5CCOC5)cc4OCC(F)(F)F)c(F)c3)c2cc1OC` (stereo not shown) [Compound 77] is less than 100 nM; for `COc1cc2nccc(Oc3ccc(NC(=O)c4nn(C5CCNC5)cc4OCC(F)(F)F)cc3F)c2cc1OC` (stereo not shown) [Compound 78] it is 100 to 500 nM; for `COc1cc2nccc(Oc3ccc(NC(=O)c4nn(CCN)cc4OCC(F)(F)F)cc3F)c2cc1OC` [Compound 79] it is less than 100 nM.
In the case of `COc1cc2nccc(Oc3ccc(NC(=O)c4nn(CC(C)O)cc4OCC(F)(F)F)cc3F)c2cc1OC` (stereo not shown) [Compound 80], the Kd is less than 100 nM.
The figure for `COc1cc2nccc(Oc3ccc(NC(=O)c4nn(C5CCNC5)cc4OCC(F)(F)F)cc3C)c2cc1OC` (stereo not shown) [Compound 81] is 100 to 500 nM; for `COc1cc2nccc(Oc3ccc(NC(=O)c4nn(CCN)cc4OCC(F)(F)F)cc3C)c2cc1OC` [Compound 82] it is 100 to 500 nM; for `COc1cc2nccc(Oc3ccc(NC(=O)c4nn(CC(C)O)cc4OCC(F)(F)F)cc3C)c2cc1OC` (stereo not shown) [Compound 83] it is less than 100 nM.
Then `COCCn1cc(OCC(F)(F)F)c(C(=O)Nc2ccc(Oc3ccnc4cc(OC)c(OC)cc34)c(C)c2)n1` [Compound 84], with less than 100 nM; and `COc1cc2nccc(Oc3ccc(NC(=O)c4nn(C5CCOC5)cc4OCC(F)(F)F)cc3C)c2cc1OC` (stereo not shown) [Compound 85], with less than 100 nM; and `COc1cc2nccc(Oc3ccc(NC(=O)c4nn(C5CCNC5)cc4OCC(F)(F)F)cc3)c2cc1OC` (stereo not shown) [Compound 86], with 100 to 500 nM.
Turning to `COc1cc2nccc(Oc3ccc(NC(=O)c4nn(CC(C)C)cc4OCC(F)(F)F)cc3)c2cc1OC` [Compound 87], the equilibrium dissociation constant (Kd) is less than 100 nM.
For the compound `COc1cc2nccc(Oc3ccc(NC(=O)c4nn(CCN)cc4OCC(F)(F)F)cc3)c2cc1OC` [Compound 88], the Kd lay within 100 to 500 nM.
The figure for `COc1cc2nccc(Oc3ccc(NC(=O)c4nn(CC(C)O)cc4OCC(F)(F)F)cc3)c2cc1OC` (stereo not shown) [Compound 89] is less than 100 nM.
For the compound `COc1cc2nccc(Oc3ccc(NC(=O)c4nn(C5CCOCC5)cc4OCC(F)(F)F)nc3)c2cc1OC` [Compound 90], the Kd was less than 100 nM.
The figure for `COc1cc2nccc(Oc3ccc(NC(=O)c4nn(C5CCN(C)C5)cc4OCC(F)(F)F)nc3)c2cc1OC` (stereo not shown) [Compound 91] is less than 100 nM; for `COc1cc2nccc(Oc3ccc(NC(=O)c4nn(CCC5CCCC5)cc4OCC(F)(F)F)nc3)c2cc1OC` [Compound 93] it is less than 100 nM; for `COc1cc2nccc(Oc3ccc(NC(=O)c4nn(C5CCN(C)C5)cc4OCC(F)(F)F)c(F)c3)c2cc1OC` (stereo not shown) [Compound 94] it is less than 100 nM.
Take `COc1cc2nccc(Oc3ccc(NC(=O)c4nn(CC5COC5)cc4OCC(F)(F)F)c(F)c3)c2cc1OC` [Compound 95]: the Kd is less than 100 nM.
